For test [1], the target named is T1, UGT1A4 (Homo sapiens, UniProt P22310).
T1 construct: using pooled human liver microsomes; tissue BD Gentest Co. H161; host or cells: pooled human liver microsomes
T1 sequence (P22310 29-534): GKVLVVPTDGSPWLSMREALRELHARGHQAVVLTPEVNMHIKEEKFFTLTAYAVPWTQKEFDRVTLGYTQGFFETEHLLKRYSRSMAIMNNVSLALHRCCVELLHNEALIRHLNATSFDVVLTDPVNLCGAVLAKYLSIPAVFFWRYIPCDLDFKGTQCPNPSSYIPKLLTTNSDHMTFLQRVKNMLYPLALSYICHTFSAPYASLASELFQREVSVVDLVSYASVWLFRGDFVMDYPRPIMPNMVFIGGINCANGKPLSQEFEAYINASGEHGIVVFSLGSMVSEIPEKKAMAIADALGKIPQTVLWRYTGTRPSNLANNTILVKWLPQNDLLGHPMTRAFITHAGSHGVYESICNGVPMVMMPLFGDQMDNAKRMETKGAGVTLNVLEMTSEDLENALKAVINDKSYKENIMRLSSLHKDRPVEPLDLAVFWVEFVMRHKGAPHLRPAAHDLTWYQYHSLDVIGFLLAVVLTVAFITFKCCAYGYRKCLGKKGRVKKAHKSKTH
The test can be described thus: UGT1A4 trifluoperazine N-glucuronidation inhibition in pooled human liver microsomes. The test is classed as in vitro ADME. Particulars: pooled human liver microsomes (H161), 5 μM trifluoperazine, no inhibition at 1,000 μM of corydaline. Here is the method: (§1) The inhibitory potencies (IC50 values) of corydaline were also determined with UGT assays in the presence and absence of corydaline (final concentrations of 1–1,000 μM with acetonitrile concentration less than 0.5% v/v) using pooled human liver microsomes. 17β-Estradiol 3-glucuronidation, trifluoperazine glucuronidation, propofol glucuronidation, and azidothymidine glucuronidation activities were determined as probe activities for UGT1A1, UGT1A4, UGT1A9, and UGT2B7, respectively, using LC/MS/MS. Incubation mixtures were prepared in a total volume of 100 μL, as follows: Pooled human liver microsomes (0.2 mg/mL for 17β-estradiol, trifluoperazine and azidothymidine; 0.1 mg/mL for propofol), 2 mM UDPGA, 25 μg/mL alamethicin, 10 mM MgCl2, 50 mM tris buffer (pH 7.4), UGT-isoform specific probe substrate (20 μM 17β-estradiol for UGT1A1, 5 μM trifluoperazine for UGT1A4, 10 μM propofol for UGT1A9, or 100 μM azidothymidine for UGT2B7), and various concentrations of corydaline (1−1000 μM). […]
(§2) Glucuronides produced from UGT isoform-specific substrates were respectively determined by LC/MS/MS. […] Quantification was performed by SRM of the [M+H]^+ ion for trifluoperazine glucuronide and azidothymidine glucuronide or [M−H]^− for 17β-estradiol 3-glucuronide and propofol glucuronide and the related product ion for each metabolite. […]
In general terms: Liver microsomes are vesicles of endoplasmic reticulum, rich in cytochrome P450 enzymes.

Test [2] has as its target T2, UGT2B7 (Homo sapiens, UniProt P16662).
T2 construct: using pooled human liver microsomes; tissue BD Gentest Co. H161; host or cells: pooled human liver microsomes
T2 sequence (P16662 24-529): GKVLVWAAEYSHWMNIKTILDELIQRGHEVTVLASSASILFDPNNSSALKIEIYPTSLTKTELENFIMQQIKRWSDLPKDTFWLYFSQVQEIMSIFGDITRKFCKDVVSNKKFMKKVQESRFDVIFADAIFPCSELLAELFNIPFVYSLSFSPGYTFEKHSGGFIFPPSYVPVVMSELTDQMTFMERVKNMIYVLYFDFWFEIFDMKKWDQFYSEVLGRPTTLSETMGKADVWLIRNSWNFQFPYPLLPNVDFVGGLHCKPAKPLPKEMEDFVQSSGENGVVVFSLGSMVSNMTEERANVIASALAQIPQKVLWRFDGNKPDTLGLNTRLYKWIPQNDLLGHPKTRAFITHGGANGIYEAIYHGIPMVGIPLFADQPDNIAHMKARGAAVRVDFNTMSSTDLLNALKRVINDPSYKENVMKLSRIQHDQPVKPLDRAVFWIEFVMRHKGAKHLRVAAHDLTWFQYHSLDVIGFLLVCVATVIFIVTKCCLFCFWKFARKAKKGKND
The test can be described thus: UGT2B7 azidothymidine glucuronidation inhibition in pooled human liver microsomes. Particulars: pooled human liver microsomes (H161), 100 μM azidothymidine, no inhibition at 1,000 μM of corydaline. It counts as in vitro ADME. The procedure:
as §1, §2

Regarding `COc1cc2c(cc1OC)C1C(C)c3ccc(OC)c(OC)c3CN1CC2` (stereo not shown) [Corydaline, 2,3,9,10-tetramethoxy-13-methyl-5,8,13,13a-tetrahydro-6H-isoquino[3,2-a]isoquinoline], the “IC50, UGT1A4 trifluoperazine N-glucuronidation” value in test [1] is given as “not inhibited”; in test [1] (listed as corydaline), “No inhibition *”. The “IC50, UGT2B7 azidothymidine glucuronidation” value was “not inhibited” in test [2] and “No inhibition *” in test [2] (listed as corydaline).

These data come from paper PMC6264278, “Corydaline Inhibits Multiple Cytochrome P450 and UDP-Glucuronosyltransferase Enzyme Activities in Human Liver Microsomes” (Molecules, 2011).
